Data as given in patent publication US7351739B2, “Bioactive compounds and methods of uses thereof” (Wellgen, Inc., priority 2004, dated 2008).

Columns and labels:
JB6 C141 cells = assay: Anchorage-independent (soft agar) neoplastic cell transformation assay, EGF-exposed; assay type: cell-based, mouse
Experimental: (§1) Cell cultures: The JB6 mouse epidermal cell line Cl 41 or its stable AP-1 luciferase reporter plasmid stable transfectant was maintained with Eagles minimal essential medium (MEM), containing 5% fetal bovine serum (FBS), 2 mM L-glutamine and […] gentamicin or 50 IU/ml penicillin G and 50 μg/ml streptomycin, in an atmosphere of 95% air-5% CO2 at 37° C. Cells were seeded at a density of 5×10^4 cells/ml and cultured for 24 h. The cells were serum-starved in 0.1% FBS in MEM for 36 h to synchronize the cell cycle into G0 phase. The cells were treated with various concentrations of the test compound or distilled water (as a control) for 1 h, followed, by addition of MTS assay buffer for toxicity studies or 12-O-tetradecanoylphorbol-13-acetate (TPA) or epidermal growth factor (EGF at 10-20 ng/ml) to determine AP-1 activation. Some cells were used for cell transformation assays as described below. For human phenotype expression assays, human colon HCT116, human lung cancer HT460, human skin melanoma SK-MEL-28 or human ovarian SK-OV3 cells were cultured in their respective medium and harvested for soft agar assays.
(§2) Anchorage-independent transfornation assay: Inhibition of test compounds on TPA or EGF-induced cell transformation or human tumor phenotype expression was investigated under anchorage independent conditions. Samples of 1×10^4 cells were exposed to TPA (20 ng/ml) or EGF (20 ng/ml) with or without different concentrations of test compound inl ml 0.33% basal medium Eagle (BME) agar containing 10% FBS over 3.5 ml 0.5% BME agar medium containing 10% FBS. Gingerol was dissolved in 100% ethanol. Ethanol was used in the control group for comparison. The cultures were maintained in a 37° C., 5% CO2 incubator for 14-21 days and the cell colonies were scored by a computerized program integrated with a light microscope. Human tumor cells were treated in a similar manner but no EGF or TPA was needed.

[1] = system: HCT116 colon cancer cells; assay: Soft agar colony formation / human tumor phenotype expression; assay type: cell-based
Experimental: as §1, §2

HT460 lung cancer cells = assay: as above; assay type: cell-based; conditions: for Effect against human lung cancer cells, colony formation (figure statement, in words): concentration not given
Experimental: as §1, §2

[2] = system: SK-MEL-28 skin cancer cells; assay: as above; assay type: cell-based
Experimental: as §1, §2

[3] = system: JB6 C141 mouse skin cells; assay: MTS toxicity (cell proliferation) assay; assay type: cell-based; conditions: 50 μM
Experimental: as §1, with “For human phenotype expression assays, human colon HCT116, human lung cancer HT460, human skin melanoma SK-MEL-28 or human ovarian SK-OV3 cells were cultured in their respective medium and harvested for soft agar assays.” left out
Cell Proliferation Assay (MTS Assay): Cell proliferation was analyzed using the CELLTITER 96® AQueous One Solution Cell Proliferation Assay (Promega, Madison, Wis.) following the instructions provided. […] Then the absorbance of a colored formazan product catalyzed by dehydrogenase enzymes in metabolically active cells was recorded at 492 nm with 690 nm as a background. Data were expressed as the percentage of absorbance of untreated control cells.

[4] = system: SK-OV-3 ovarian cancer cells; assay: Soft agar colony formation / human tumor phenotype expression; assay type: cell-based
Experimental: as §1, §2

[5] = system: skin cancer induced by UVA exposure in hairless mice; assay: UVA-induced skin tumors in SKh-1 hairless mice, topical treatment; assay type: in vivo; conditions: day 84, 30 micrograms per mouse on tumors, 5 days a week, day 21 to 53
Experimental: Twenty SKh-1 hairless mice were exposed to UVA to induce skin tumor formation. […] Rubescensin J was dissolved in DMSO and then brought up to volume in acetone. The two groups. of mice were treated with rubescensin J in acetone, and acetone alone, respectively. […] Five days a week, each mouse received a total of 30 micrograms applied directly on tumor(s) in a volume of 250 microliters. The compound was made fresh each day. Tumor numbers and sizes were monitored and recorded periodically.
Initial measurements were taken on day 1, 14 and 20, and the first treatment was applied on day 21. The experimental group of mice were treated with the compound 5 days a week until the compound was depleted on day 53. Measurement #1 through to #11 were made on day 14, 20, 24, 28, 32, 36, 39, 43, 51, 53, and 84. The numbers of tumor papillomas and the tumor volumes are expressed as a percentage of the number of papillomas and tumor volume on day 1.

[6] = Homo sapiens, 25 μM, read-out: % Inhibition: HT 460 Lung Cancer

C=C1[C@@H](OC(C)=O)[C@]23[C@H](O)[C@H]1CC[C@H]2[C@]12CCCC(C)(C)[C@H]1[C@H](OC(C)=O)[C@]3(O)OC2 [Rabdoternin C]
Prevention of neoplastic cell transformation, EGF, soft agar (FIG. 21) (JB6 C141 cells; 10 μM): 50%
Inhibition of neoplastic transformation in JB6 cell (in words) (JB6 C141 cells; 100 μM): completely inhibits
% Inhibition: Neoplastic Transformation in JB6 Cells (JB6 C141 cells; text b465: 50% at 10 μM): 50%
% Inhibition: HCT116 Colon Cancer Cells ([1]; 100 μM): 68%
Inhibition of HCT116 colon cancer cell growth (in words) ([1]; 100 μM): significantly inhibited
Decreasing colony formation, human colon cancer cells (figure statement, in words) ([1]; concentration not given): particularly effective
% Inhibition: HT 460 Lung Cancer (HT460 lung cancer cells; 100 μM): 14%
Inhibition of HT460 lung cancer cell growth (in words) (HT460 lung cancer cells; 100 μM): moderately inhibited
Effect against human lung cancer cells, colony formation (figure statement, in words) (HT460 lung cancer cells): some inhibitory effect
% Inhibition: SK-MEL-28 Skin Cancer ([2]; 100 μM): 5-10%
Inhibition of SK-MEL-28 skin cancer cell growth (in words) ([2]; 100 μM): moderately inhibited
Effect against human skin melanoma cells, colony formation (figure statement, in words) ([2]; concentration not given): some inhibitory effect

CC1OC(OC2C(O)C(CO)OC(OCCc3ccc(OC(=O)/C=C/c4ccc(O)c(O)c4)c(O)c3)C2O)C(O)C(O)C1O (stereo not drawn) [Rubscendepside]
Toxicity evaluation with MTS assay (in words) [3]: no Rubscendepside toxicity
Prevention of neoplastic cell transformation, EGF, soft agar (figure statement, in words) (JB6 C141 cells; 25 μM): prevented neoplastic cell transformation
Inhibition of neoplastic transformation in JB6 cell (in words) (JB6 C141 cells; 50 μM): completely inhibits
% Inhibition: Neoplastic Transformation in JB6 Cells (JB6 C141 cells; 20-50 μM): 80-100 (20-50 μM) %
Inhibition of HCT116 colon cancer cell growth (in words) ([1]; 15 μM): significantly inhibits
inhibition at 15 µM ([1]; Homo sapiens, HCT-116, 15 μM): 60%
Decreasing colony formation, human colon cancer cells (figure statement, in words) ([1]; concentration not given): particularly effective
Inhibition of HT460 lung cancer cell growth (in words) (HT460 lung cancer cells; 25 μM): moderately inhibits
inhibition at 25 µM (HT460 lung cancer cells; [6]): 37%
Effect against human lung cancer cells, colony formation (figure statement, in words) (HT460 lung cancer cells): moderate inhibitory effect
Inhibition of SK-MEL-28 skin cancer cell growth (in words) ([2]; 25 μM): moderately inhibits
inhibition at 25 µM ([2]; Homo sapiens, SK-MEL-28, 25 μM): 36%
Effect against human skin melanoma cells, colony formation (figure statement, in words) ([2]; concentration not given): moderate inhibitory effect

Rubescensin M
Inhibition of neoplastic transformation in JB6 cell (in words) (JB6 C141 cells; 100 μM): almost completely inhibits
Prevention of neoplastic cell transformation, EGF, soft agar (figure statement, in words) (JB6 C141 cells; 100 μM): prevented neoplastic cell transformation
% Inhibition: Neoplastic Transformation in JB6 Cells (JB6 C141 cells; text b462: 100 μM): 90%
% Inhibition: HCT116 Colon Cancer Cells ([1]; 75 μM): 90%
Decreasing colony formation, human colon cancer cells (figure statement, in words) ([1]; concentration not given): particularly effective
% Inhibition: HT 460 Lung Cancer (HT460 lung cancer cells; 75 μM): 73%
Effect against human lung cancer cells, colony formation (figure statement, in words) (HT460 lung cancer cells): moderate inhibitory effect
% Inhibition: SK-MEL-28 Skin Cancer ([2]; 50 μM): 100%
Inhibition of SK-MEL-28 skin cancer cell growth (in words) ([2]; 50 μM): completely inhibited
Effect against human skin melanoma cells, colony formation (figure statement, in words) ([2]; concentration not given): particularly effective

C=C1[C@@H](O)[C@@]23C(CC[C@@H]1[C@H]2O)[C@@]12C(=O)O[C@@]3(O)[C@@H](O)C1C(C)(C)CC[C@@H]2O (stereo partly drawn) [Rabdoternin B]
Inhibition of neoplastic transformation in JB6 cell (in words) (JB6 C141 cells; 75 μM): completely inhibits
Prevention of neoplastic cell transformation, EGF, soft agar (figure statement, in words) (JB6 C141 cells; 75 μM): prevented neoplastic cell transformation
inhibition at 75 µM (JB6 C141 cells; Mus musculus, 75 μM): 100%
Inhibition of HCT116 colon cancer cell growth (in words) ([1]; 50 μM): completely inhibited
inhibition at 50 µM ([1]; Homo sapiens, HCT-116, 50 μM): 100%
Decreasing colony formation, human colon cancer cells (figure statement, in words) ([1]; concentration not given): particularly effective
inhibition at 35 µM (HT460 lung cancer cells; Homo sapiens, 35 μM, read-out: % Inhibition: HT 460 Lung Cancer): 0%
inhibition at 35 µM ([2]; Homo sapiens, SK-MEL-28, 35 μM): 0%

CC1(C)CC[C@H](O)[C@]23CO[C@@](O)([C@@H](O)C12)[C@]12C(=O)[C@@]4(CO4)[C@H](CCC31)[C@H]2O (stereo partly drawn) [Rubescensin J, 1α, 6β, 7β, 14β-tetrohydroxy-7α,20-epoxy-ent-kaur-16,17-exo-epoxide-15-one]
Prevention of neoplastic cell transformation, EGF, soft agar (figure statement, in words) (JB6 C141 cells; 25 μM): prevented neoplastic cell transformation
Inhibition of neoplastic transformation in JB6 cell (in words) (JB6 C141 cells; 40 μM): completely inhibits
% Inhibition: Neoplastic Transformation in JB6 Cells (JB6 C141 cells; 20-40 μM): 83-100 (20-40 μM) %
Decreasing colony formation, human colon cancer cells (figure statement, in words) ([1]; 10 μM): particularly effective
Inhibition of HCT116 colon cancer cell growth (in words) ([1]; 20 μM): completely inhibits
inhibition at 20 µM ([1]; Homo sapiens, HCT-116, 20 μM): 100%
Inhibition of HT460 lung cancer cell growth (in words) (HT460 lung cancer cells; 20 μM): moderately inhibits
inhibition at 20 µM (HT460 lung cancer cells; Homo sapiens, 20 μM, read-out: % Inhibition: HT 460 Lung Cancer): 20%
Effect against human lung cancer cells, colony formation (figure statement, in words) (HT460 lung cancer cells): moderate inhibitory effect
Effect against human skin melanoma cells, colony formation (figure statement, in words) ([2]; 20 μM): particularly effective
Inhibition of SK-MEL-28 skin cancer cell growth (in words) ([2]; 20 μM): significantly inhibits
inhibition at 20 µM ([2]; Homo sapiens, SK-MEL-28, 20 μM): 50%
Inhibition of SK-OV-3 ovarian cancer cell growth (in words) ([4]; 20 μM): moderately inhibits
inhibition at 20 µM ([4]; Homo sapiens, SK-OV-3, 20 μM): 15%
Effect against human ovarian cancer cells, colony formation (figure statement, in words) ([4]; concentration not given): moderate inhibitory effect
Number of tumor papillomas as percentage of the number on day 1 ([5]; untreated group about 90%): ~50%
Tumor volume as percentage of the volume on day 1 ([5]; untreated group about 120%): about 60%

C=C1[C@@H](O)[C@@]23C(CC[C@@H]1[C@H]2O)[C@]12CCCC(C)(C)C1[C@H](O)[C@]3(O)OC2=O (stereo partly drawn) [Rabdoternin A]
Inhibition of neoplastic transformation in JB6 cell (in words) (JB6 C141 cells; 25 μM): completely inhibits
Prevention of neoplastic cell transformation, EGF, soft agar (figure statement, in words) (JB6 C141 cells; 25 μM): prevented neoplastic cell transformation
inhibition at 25 µM (JB6 C141 cells; Mus musculus, 25 μM): 100%
Inhibition of HCT116 colon cancer cell growth (in words) ([1]; 25 μM): completely inhibited
inhibition at 25 µM ([1]; Homo sapiens, HCT-116, 25 μM): 100%
Decreasing colony formation, human colon cancer cells (figure statement, in words) ([1]; concentration not given): particularly effective
Inhibition of HT460 lung cancer cell growth (in words) (HT460 lung cancer cells; 25 μM): moderately inhibited
inhibition at 25 µM (HT460 lung cancer cells; [6]): 10%
Effect against human lung cancer cells, colony formation (figure statement, in words) (HT460 lung cancer cells): moderate inhibitory effect
Inhibition of SK-MEL-28 skin cancer cell growth (in words) ([2]; 15 μM): completely inhibits
inhibition at 25 µM ([2]; Homo sapiens, SK-MEL-28, 25 μM): 100%
Effect against human skin melanoma cells, colony formation (figure statement, in words) ([2]; concentration not given): particularly effective
